From US10023836B2, “Medium for yeasts” (YAMAGUCHI UNIVERSITY, priority 2012, dated 2018)

What was measured:
RAK2683 yeast strain = experiment: Investigation of nitrogen source used singly in MM culture medium instead of ammonium sulfate (Table 4); assay type: cell-based, Saccharomyces cerevisiae; conditions: Table 4 conditions
[1] = test system: Saccharomyces cerevisiae RAK3599 strain; experiment: SynAA culture medium: elimination of single components and inorganic ion concentration; assay type: cell-based; conditions: one component of the inorganic ion mix eliminated from SynAA culture medium
Description: In a case where no special provisions are made, a procedure for a cultivation experiment using the culture medium to be investigated for proliferation was such that a yeast undergoing investigation was pre-cultured in a YPD liquid culture medium at 28° C. for 24 hours, after which the yeast was adjusted such that OD600=20. […] In addition, OD600 was measured every 15 minutes by a spectrophotometer (Cell density meter co8000, WPA). Hereafter, data is represented by graphs for a case using the automatic spectrophotometer; however, these graphs are primarily used to compare the slope of logarithmic growth phase proliferation curves for each culture medium, and because OD600 is measured without dilution, values where OD600=3 to 3.5 or more may be incorrect.
Culture mediums were prepared in which one component each of the components configuring the inorganic ion mix was eliminated from the SynAA culture medium, and OD600 was measured. […] Thereafter, an investigation specifically of inorganic ion concentration was conducted. […] An investigation was conducted using RAK3599 strain (hereafter, simply referred to as “RAK3599 strain”), which is a strain of Saccharomyces cerevisiae not having a particular nutritional requirement. Where no subsequent special provisions were made, proliferation was investigated by performing roller tube culture for an appropriate amount of time at 28° C. and measuring OD600.
MgSO4 concentration in the SynAA culture mediums was adjusted to 0%, 0.0001%, 0.001%, 0.01%, 0.1%, and 1%, respectively, and proliferation of the RAK3599 strain was investigated. […] Next, MgCl2 concentration in the SynAA culture mediums was adjusted to 0.001%, 0.01%, 0.1%, and 1%, respectively, and proliferation of the RAK3599 strain was investigated.
A culture medium was prepared in which one component each of the components configuring the vitamin mix was eliminated from the SynAA culture medium, with the SynAA culture medium as the control, and proliferation of the RAK3599 strain was investigated.

RAK3599 strain = experiment: Investigation with AID and aY-AID culture medium (FIGS. 29 to 39); assay type: cell-based, Saccharomyces cerevisiae; conditions: for effect on proliferation when added at high concentrations: up to 1% or up to 0.2500%
Description: As shown in the following, an investigation was conducted into concentrations of each amino acid and a substitution potential of pantothenic acid for the amino acid in the AID culture medium. A suitable YPD culture medium was used as a control.
Next, the amino acids asparagine, isoleucine, phenylalanine, and valine were each adjusted to a culture medium additive concentration of […], 0.0312%, 0.0625%, 0.1250%, and 0.2500%, and OD600 was measured after 24 hours.
Isoleucine concentration in the aY-AID culture medium was adjusted to 0, 0.01 mg/mL, 0.1 mg/mL, 0.5 mg/mL, and 1 mg/mL, respectively, and proliferation of the RAK3599 strain was investigated.
Phenylalanine concentration in the aY-AID culture medium was adjusted to 0, 0.01, 0.1, 0.5, and 1 mg/mL, respectively, and proliferation of the RAK3599 strain was investigated.
Valine concentration in the aY-AID culture medium was adjusted to 0, 0.01, 0.1, 0.5, and 1 mg/mL, respectively, and proliferation of the RAK3599 strain was investigated.
Serine concentration in the AID culture medium was adjusted to 0, 0.01 mg/mL, 0.1 mg/mL, 0.5 mg/mL, and 1 mg/mL, respectively, and proliferation of the RAK3599 strain was investigated.
Threonine concentration in the AID culture medium was adjusted to 0, 0.01, 0.1, 0.5, and 1 mg/mL, respectively, and proliferation of the RAK3599 strain was investigated.
Asparagine concentration in the AID culture medium was adjusted to 0, 0.01, 0.1, 0.5, and 1 mg/mL, respectively, and proliferation of the RAK3599 strain was investigated.
An investigation was conducted into vitamins contained in the AID culture medium. […]

[2] = test system: Saccharomyces cerevisiae RAK3599 strain; experiment: Glutamine, cysteine and amino acid groups in AYD′ / AYD culture medium (FIGS. 40, 41); assay type: cell-based
Description: For the AYD′ culture medium, an investigation was conducted into glutamine and cysteine concentrations using Saccharomyces cerevisiae RAK3599 strain.

[3] = test system: Saccharomyces cerevisiae histidine-requiring BY4714 (his3Δ1) strain; experiment: Histidine concentration in AKD culture medium (FIG. 17); assay type: cell-based
Description: Histidine concentration in the AKD culture mediums was adjusted to 0.001%, 0.01%, 0.1%, and 1%, respectively, and proliferation of a Saccharomyces cerevisiae histidine-requiring BY4714 (his3Δ1) strain was investigated. A maximum value was reached between 0.01% and […]. OD600 for 1/100 solutions after 42 hours was 0.07, 0.18, 0.18, and 0.15, respectively. Given the above-noted results, a preferred histidine concentration was understood to be around 0.01%.

[4] = test system: Saccharomyces cerevisiae tryptophan-requiring BY4710 (trp1Δ) strain; experiment: Tryptophan concentration in AKD culture medium (FIG. 18); assay type: cell-based
Description: Tryptophan concentration in the AKD culture mediums was adjusted to 0.001%, 0.01%, 0.1%, and 1%, respectively, and proliferation of a Saccharomyces cerevisiae tryptophan-requiring BY4710 (trp1Δ) strain was investigated. OD600 for 1/100 solutions after 48 hours was 0.08, 0.15, 0.13, and 0.12, respectively. […] Given the above-noted results, a preferred tryptophan concentration was understood to be around 0.01%.

[5] = test system: Saccharomyces cerevisiae adenine-requiring BY4725 (ade2Δ) strain; experiment: Adenine concentration in AKD culture medium (FIG. 20); assay type: cell-based
Description: A concentration of adenine contained in the amino acid mix of the AKD culture mediums for convenience was adjusted to 0%, 0.005%, 0.01%, 0.05%, 0.1%, and 0.5%, respectively, and proliferation of a Saccharomyces cerevisiae adenine-requiring BY4725 (ade2Δ) strain was investigated. OD600 for 1/20 solutions after 42 hours was 4, 15, 18, 18, 13 and 16, respectively. […] Given the above-noted results, a preferred adenine concentration was understood to be around 0.01%.

[6] = test system: Saccharomyces cerevisiae uracil-requiring BY4700 (ura3Δ) strain; experiment: Uracil concentration in AKD culture medium (FIG. 19); assay type: cell-based
Description: A concentration of uracil contained in the amino acid mix of the AKD culture mediums for convenience was adjusted to 0.001%, 0.005%, 0.05%, 0.1%, and 0.5%, respectively, and proliferation of a Saccharomyces cerevisiae uracil-requiring BY4700 (ura3Δ) strain was investigated. OD600 for 1/100 solutions after 42 hours was 0.10, 0.21, 0.21, 0.22 and 0.20, respectively. Proliferation was confirmed to be low at 0.001%, to increase at 0.005%. and to markedly increase at between 0.05% and 0.1%. Proliferation was confirmed to be somewhat inhibited at 0.5%. Given the above-noted results, a preferred uracil concentration was understood to be around 0.01%.

## N.N.O=S(=O)(O)O [Ammonium sulfate]
RAK2683 yeast strain
  proliferation when added singly as nitrogen source: proliferation was confirmed to be extremely poor
[1]
  proliferation when the component is not added: higher proliferation

## N[C@@H](CS)C(=O)O [Cysteine, L-Cysteine]
RAK3599 strain; AID culture medium
  effect on proliferation when added at high concentrations: proliferation was confirmed to be inhibited
[2]; AYD′ culture medium
  appropriate concentration: around 0.01 g/L

## N[C@@H](CCC(=O)[O-])C(=O)[O-].O.[Na+].[Na+] [Glutamic acid, L-Glutamic acid sodium salt hydrate]
RAK2683 yeast strain
  proliferation when added singly as nitrogen source: favorable proliferation

## NC(=O)CC[C@H](N)C(=O)O [Glutamine, L-Glutamine]
RAK3599 strain; AID culture medium
  effect on proliferation when added at high concentrations: proliferation was confirmed to be inhibited
[2]; AYD′ culture medium
  appropriate concentration: 5 g/L
[2]; AYD′ culture medium, glutamine concentration set to 10 times the previous concentration
  growth: growth was confirmed to be extremely improved

## NCC(=O)O [Glycine]
RAK2683 yeast strain
  proliferation when added singly as nitrogen source: almost no proliferation
RAK3599 strain; AID culture medium
  effect on proliferation when added at high concentrations: proliferation was confirmed to be inhibited

## Cl.N[C@@H](Cc1c[nH]cn1)C(=O)O.O [Histidine, L-Histidine hydrochloride hydrate]
RAK2683 yeast strain
  proliferation when added singly as nitrogen source: almost no proliferation
[3]
  preferred concentration: around 0.01%
[3]; histidine 0.001%
  OD600 for 1/100 solutions after 42 hours: 0.07
[3]; histidine 0.01%
  OD600 for 1/100 solutions after 42 hours: 0.18
[3]; histidine 0.1%
  OD600 for 1/100 solutions after 42 hours: 0.18
[3]; histidine 1%
  OD600 for 1/100 solutions after 42 hours: 0.15

## Cl.NCCCC[C@H](N)C(=O)O [Lysine, L-Lysine hydrochloride]
RAK2683 yeast strain
  proliferation when added singly as nitrogen source: almost no proliferation

## CSCC[C@H](N)C(=O)O [Methionine, L-Methionine]
RAK3599 strain; AID culture medium
  effect on proliferation when added at high concentrations: proliferation was confirmed to be inhibited
[2]; amino acid group or individual amino acid of the AY5 group eliminated
  proliferation when eliminated from the AYD culture medium: proliferation decreases

## O=C(O)[C@@H]1CCCN1 [Proline, L-Proline]
RAK2683 yeast strain
  proliferation when added singly as nitrogen source: favorable proliferation

## C[C@@H](O)[C@H](N)C(=O)O [Threonine, L-Threonine]
RAK2683 yeast strain
  proliferation when added singly as nitrogen source: almost no proliferation
RAK3599 strain; AID culture medium
  content at which proliferation particularly increased: around 0.5 mg/mL
  effect on proliferation when added at high concentrations: proliferation was confirmed to be inhibited
RAK3599 strain; AID or aY-AID culture medium
  preferred concentration / content: around 0.5 g/L

## N[C@@H](Cc1c[nH]c2ccccc12)C(=O)O [Tryptophan, L-Tryptophan]
[4]
  concentration at which proliferation was somewhat inhibited: 0.1%
  preferred concentration: around 0.01%
[4]; tryptophan 0.001%
  OD600 for 1/100 solutions after 48 hours: 0.08
[4]; tryptophan 0.01%
  OD600 for 1/100 solutions after 48 hours: 0.15
[4]; tryptophan 0.1%
  OD600 for 1/100 solutions after 48 hours: 0.13
[4]; tryptophan 1%
  OD600 for 1/100 solutions after 48 hours: 0.12

## Nc1ncnc2nc[nH]c12 [adenine]
[5]
  concentration at which proliferation was slightly inhibited: ≥ 0.1%
  preferred concentration: around 0.01%
[5]; adenine 0%
  OD600 for 1/20 solutions after 42 hours: 4
[5]; adenine 0.005%
  OD600 for 1/20 solutions after 42 hours: 15
[5]; adenine 0.01%
  OD600 for 1/20 solutions after 42 hours: 18
[5]; adenine 0.05%
  OD600 for 1/20 solutions after 42 hours: 18
[5]; adenine 0.1%
  OD600 for 1/20 solutions after 42 hours: 13
[5]; adenine 0.5%
  OD600 for 1/20 solutions after 42 hours: 16

## O=c1cc[nH]c(=O)[nH]1 [uracil]
[6]
  concentration at which proliferation was somewhat inhibited: 0.5%
  preferred concentration: around 0.01%
[6]; uracil 0.001%
  OD600 for 1/100 solutions after 42 hours: 0.10
[6]; uracil 0.005%
  OD600 for 1/100 solutions after 42 hours: 0.21
[6]; uracil 0.05%
  OD600 for 1/100 solutions after 42 hours: 0.21
[6]; uracil 0.1%
  OD600 for 1/100 solutions after 42 hours: 0.22
[6]; uracil 0.5%
  OD600 for 1/100 solutions after 42 hours: 0.20
